For series [1] the following is noted: amide bond, 15-membered ring, TBTU/Et3N, 20.0 °C.
For series [2] the following is noted: amide bond, TBTU, 20.0 °C.

Where two headings read alike, the source gives them in different places.

Ring closure, isolated yield and ring closure, yield of all isomers data for two compounds are collected here from US20240199614A1, “MACROCYCLIC EGFR INHIBITORS FOR THE TREATMENT OF CANCER” (Theseus Pharmaceuticals, Inc., priority 2021, published 2024).

As to `Cc1cc2cc(n1)-c1cnn(C)c1CCCO[C@@H](C)CN1/C(=N/C2=O)Nc2ccc(Br)cc21`, the ring closure, isolated yield in series [1] (from Cc1cc(C(=O)O)cc(-c2cnn(C)c2CCCO[C@@H](C)Cn2c(N)nc3ccc(Br)cc32)n1, DMF, 190.0 mM) is 28.8%. For the same compound, the ring closure, yield of all isomers in series [2] (from Cc1cc(C(=O)O)cc(-c2cnn(C)c2CCCO[C@@H](C)Cn2c(N)nc3ccc(Br)cc32)n1, Et3N, DMF, 190.0 mM, 0.5 h) is 28.8%.

In series [1] (from Cc1cc(C(=O)O)cc(-c2cnn(C)c2N2CC(OCCn3c(N)nc4ccc(Br)cc43)C2)n1, DCM, 3.99 mM), `Cc1cc2cc(n1)-c1cnn(C)c1N1CC(C1)OCCN1/C(=N/C2=O)Nc2ccc(Br)cc21` yielded a ring closure, isolated yield of 60.3%. Moreover, the ring closure, yield of all isomers in series [2] (from Cc1cc(C(=O)O)cc(-c2cnn(C)c2N2CC(OCCn3c(N)nc4ccc(Br)cc43)C2)n1, TEA, DCM, 3.99 mM, 1.0 h) was determined as 60.3%.
